Assay results reported in patent US4889860A (Nova Pharmaceutical Corporation, priority 1987, dated 1989).
Entries after “also recorded” stand apart in the source; their conditions may differ.

Experiments:
[1] = target: T1, kappa-type opioid receptor (Cavia porcellus, UniProt P41144); test: inhibition of specific [^3 H] EKC binding to guinea pig cerebellum membrane
T1 construct: using guiniea pig cerebellum membrane; from tissue; host or cells: guinea pig cerebellum membranes
Experimental: (§1) The interaction of some of the novel compounds with mu, delta and kappa - type opioid receptors present in brain membranes was examined in vitro. […] DAGO (mu-type receptor), or [^3 H] DADLE (Delta-type receptor) using rat forebrain membranes and [^3 H] EKC (kappa-type receptor) using guiniea pig cerebellum membrane was determined. Computer assisted analysis (EBDA) was used to determine apparent Ki values for the various compounds.
(§2) The values represent the MEAN±S.E.M. of the Ki(nM) for each compound to inhibit specific binding of the indicated ligand. Each value represents the mean of three individual experiments performed on separate occasions.

[2] = tested on: writhing response; test: animal or person; assay type: in vivo, mouse; conditions: Mus musculus; Table 7; read-out: ED50, Acetic Acid Induced Writhing in the Mouse
[3] = target: delta-type opioid receptor (Rattus norvegicus, UniProt P33533); test: inhibition of specific [^3 H] DADLE binding to rat forebrain membranes; conditions: read-out: (Ki) nM, δ receptor (Rat Forebrain); Table 6; [^3 H] DADLE, mean of three experiments
delta-type opioid receptor, sequence (P33533 whole entry): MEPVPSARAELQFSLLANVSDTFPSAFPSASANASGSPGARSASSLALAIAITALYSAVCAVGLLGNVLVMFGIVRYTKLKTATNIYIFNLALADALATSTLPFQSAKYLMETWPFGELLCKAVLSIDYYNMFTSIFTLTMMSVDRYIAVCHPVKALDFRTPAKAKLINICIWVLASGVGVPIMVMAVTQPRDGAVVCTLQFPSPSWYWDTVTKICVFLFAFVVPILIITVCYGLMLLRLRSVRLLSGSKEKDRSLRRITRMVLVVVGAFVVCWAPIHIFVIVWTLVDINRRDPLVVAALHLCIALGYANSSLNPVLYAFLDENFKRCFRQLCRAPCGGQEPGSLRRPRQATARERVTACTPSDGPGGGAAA
Experimental: (§3) The interaction of some of the novel compounds with mu and delta-type opioid receptors present in brain membranes was examined in vitro. […] DAGO (mu-type receptor) or [^3 H] DADLE (delta-type receptor) was determined using rat forebrain membranes. Computer assisted analysis (EBDA) was used to determine apparent Ki values for the various compounds.
(§4) Values represent the MEAN±S.E.M. of the Ki(nM) for each compound to inhibit specific binding of the indicated ligand to rat brain membranes. The values are from two-five separate experiments and were calculated according to the method of Cheng and Prusoff [Biochem. Pharmacol. 1973, 22, 3099-3108] together with the EBDA Program. Numbers in parentheses are the mean Hill coefficients for each compound to inhibit ligand binding.
(§5) Values represent the MEAN±S.E.M. of the Ki(nM) for each compound to inhibit specific binding of the indicated ligand to rat brain membranes. The values are from two.div.seven separate experiments and were calculated according to the method of Cheng and Prusoff together with the EBDA program. Numbers in parentheses are the mean Hill coefficients for each compound to inhibit ligand binding. N.D.=not determined
as §1, §2

[4] = target: T2, mu-type opioid receptor (Rattus norvegicus, UniProt P33535); test: inhibition of specific [^3 H] DAGO binding to rat forebrain membranes; conditions: (Ki) nM, μ receptor (Rat Forebrain), Table 6; [^3 H] DAGO, mean of three experiments
T2 construct: using rat forebrain membranes; from tissue; host or cells: rat forebrain membranes
T2 sequence (P33535 whole entry): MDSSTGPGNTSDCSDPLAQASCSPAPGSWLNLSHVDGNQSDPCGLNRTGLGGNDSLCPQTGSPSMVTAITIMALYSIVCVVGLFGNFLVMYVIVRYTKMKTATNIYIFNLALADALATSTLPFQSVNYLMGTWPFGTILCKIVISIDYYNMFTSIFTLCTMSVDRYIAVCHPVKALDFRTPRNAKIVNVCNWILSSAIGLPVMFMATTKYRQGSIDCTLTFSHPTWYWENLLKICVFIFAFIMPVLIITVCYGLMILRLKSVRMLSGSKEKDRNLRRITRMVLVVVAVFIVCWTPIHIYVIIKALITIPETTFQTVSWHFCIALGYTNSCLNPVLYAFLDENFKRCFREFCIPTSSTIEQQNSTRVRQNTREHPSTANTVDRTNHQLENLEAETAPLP
Experimental: as §3, §4, §5, §1, §2

[5] = tested on: oxymorphonazine (OMZ)-induced analgesia; test: antagonism of oxymorphonazine (OMZ)-induced analgesia (tail flick) in rats; assay type: in vivo, rat; conditions: for ED50 / ED100: Rattus norvegicus, sc, Table 8; for ED50 / ED100 / Percent Antagonism at 1 Hr / Percent Antagonism at 1.5 Hr / Percent Antagonism at 2 Hr / Percent Antagonism at 3 Hr / Percent Antagonism at 4 Hr / Percent Antagonism at 6 Hr / Percent Antagonism at 8 Hr: S.C.; for ED50: read-out: ED 50, oxymorphonazine antagonism; for ED100: read-out: ED 100, oxymorphonazine antagonism; for Percent Antagonism at 1 Hr / Percent Antagonism at 1.5 Hr / Percent Antagonism at 2 Hr / Percent Antagonism at 3 Hr / Percent Antagonism at 4 Hr / Percent Antagonism at 6 Hr / Percent Antagonism at 8 Hr: dose tested (mg/kg): Naltrexone 0.5, Nalmefene 1.0, XI 10.0, XII 2.5, XIII 0.5, XIV 5.0
Experimental: The compound of Example XII was evaluated for its potency and duration in the antagonism of oxymorphonazine (OMZ)-induced analgesia. […] Data represent the mean SEM of 4-5 animals per group.
(Cowan A. Trendsin Pharmacology Science, 7:69-72, 1986) With this test the intracerebroventricular administration of bombesin produces a characteristic scratching response.

[6] = food intake in 24 hr food-deprived rats; assay type: in vivo, rat; conditions: for Food Intake in Grams: Table 3, 24 hr; for Cumulative Food Intake in Grams: Table 4
Experimental: (§6) Rats were given water and powdered food ad lib for 8 days until food intake had stabilized, and body weight and food and water intakes were recorded at the same time every day. Animals were assigned to treatment groups matched on the basis of their 24 hr food consumption on the last baseline day, and rats were food deprived for 24 hr immediately before injection of the test compound. […] The compound of Example XII was injected S.C. at doses of 1.15, 2.31, 11.55 and 23.09 μmol/kg, in a volume of 4 ml/kg of 0.3% acetic acid. Controls were injected with the vehicle solutions in the appropriate volumes. Food and water intakes were measured at 1, 3 and 24 hr after treatment. Data for each measure and time point were analyzed by one-way analysis of variance (ANOVA), and post-hoc comparisons were performed using Dunnett's test in order to compare the control mean to each of the treatment means.
(§7) Rats were given water and powdered food for 8 days, and following this,
(§8) Testing was performed as described above, and baseline measurements were recorded for 7 days. […] The compound of Example XII was injected at doses of 11.55, 23.09, 46.19 and 92.38 μmol/kg by suspension in a solution of 1:1 DMSO:water in a volume of 3 ml/kg. Food and water intakes were recorded at 1, 2, 4 and 6 h following treatment.
See Table 3 for experimental details, except that baseline measures were […]

[7] = water intake in 24 hr food-deprived rats; assay type: in vivo, rat; conditions: for effect on water intake: S.C.; for Water Intake: Table 3, 24 hr; for Cumulative Water Intake: Table 5
Experimental: as §6, §7, §8
See Table 3 for experimental details, except that baseline measurements

T1 sequence (P41144 whole entry): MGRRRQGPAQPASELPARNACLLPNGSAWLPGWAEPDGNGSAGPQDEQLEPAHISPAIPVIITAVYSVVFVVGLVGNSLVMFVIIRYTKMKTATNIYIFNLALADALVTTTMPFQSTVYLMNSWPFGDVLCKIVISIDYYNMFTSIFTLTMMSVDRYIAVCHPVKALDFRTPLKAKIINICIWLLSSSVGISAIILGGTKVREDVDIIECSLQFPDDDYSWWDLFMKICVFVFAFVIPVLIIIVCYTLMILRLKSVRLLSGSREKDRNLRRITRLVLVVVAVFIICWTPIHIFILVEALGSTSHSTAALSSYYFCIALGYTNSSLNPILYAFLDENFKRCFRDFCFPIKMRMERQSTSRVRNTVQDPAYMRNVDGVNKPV

Compound: C=C1CC[C@@]2(O)[C@H]3Cc4ccc(O)c5c4[C@@]2(CCN3CC2CC2)[C@H]1O5 [Nalmefene, reference compound]
- Ki [1]: 890 pM
- ED50 [2]: > 30 mg/kg
- Ki [3]: 0.87 nM
- Ki [4]: 0.64 nM
- ED50 [5]: 0.12 mg/kg
- ED100 [5]: 1.35 mg/kg
- Percent Antagonism at 1 Hr [5]: 85%
- Percent Antagonism at 1.5 Hr [5]: 92%
- Percent Antagonism at 2 Hr [5]: 83%
- Percent Antagonism at 3 Hr [5]: 73%
- Percent Antagonism at 4 Hr [5]: 46%
- Percent Antagonism at 6 Hr [5]: 0%
- Percent Antagonism at 8 Hr [5]: 37%

Compound: O=C1CC[C@@]2(O)[C@H]3Cc4ccc(O)c5c4[C@@]2(CCN3CC2CC2)[C@H]1O5 [Naltrexone, naltrexone]
- effect on feeding ([6]; S.C., 1, 3 and 24 hr, lower dose experiment (FIGS. 22, 23)): 14.66 and 29.33 μmol/kg doses of naltrexone inhibited feeding at 3 hr following treatment
- effect on feeding ([6]; S.C., higher dose time course experiment, 0-6 hr): at all doses decreased feeling up to 4 hr after administration, and the two lower doses also decreased feeding at 6 hr post treatment
- Food Intake in Grams ([6]; S.C. 1.47 μmol/kg): 33.0 ± 0.7 Grams
- Food Intake in Grams ([6]; S.C. 2.93 μmol/kg): 33.2 ± 3.0 Grams
- Food Intake in Grams ([6]; S.C. 14.66 μmol/kg): 37.6 ± 4.2 Grams
- Food Intake in Grams ([6]; S.C. 29.33 μmol/kg): 40.7 ± 8.2 Grams
- Cumulative Food Intake in Grams ([6]; S.C. 14.66 μmol/kg, 0-1 Hr): 3.6 ± 0.5 Grams
- Cumulative Food Intake in Grams ([6]; S.C. 14.66 μmol/kg, 0-2 Hr): 3.6 ± 0.5 Grams
- Cumulative Food Intake in Grams ([6]; S.C. 14.66 μmol/kg, 0-4 Hr): 4.0 ± 0.0 Grams
- Cumulative Food Intake in Grams ([6]; S.C. 14.66 μmol/kg, 0-6 Hr): 5.2 ± 0.6 Grams
- Cumulative Food Intake in Grams ([6]; S.C. 29.33 μmol/kg, 0-1 Hr): 3.2 ± 0.6 Grams
- Cumulative Food Intake in Grams ([6]; S.C. 29.33 μmol/kg, 0-2 Hr): 3.2 ± 0.6 Grams
- Cumulative Food Intake in Grams ([6]; S.C. 29.33 μmol/kg, 0-4 Hr): 4.4 ± 0.5 Grams
- Cumulative Food Intake in Grams ([6]; S.C. 29.33 μmol/kg, 0-6 Hr): 5.2 ± 0.9 Grams
- Cumulative Food Intake in Grams ([6]; S.C. 58.65 μmol/kg, 0-1 Hr): 2.8 ± 1.1 Grams
- Cumulative Food Intake in Grams ([6]; S.C. 58.65 μmol/kg, 0-2 Hr): 2.8 ± 1.1 Grams
- Cumulative Food Intake in Grams ([6]; S.C. 58.65 μmol/kg, 0-4 Hr): 3.2 ± 0.9 Grams
- Cumulative Food Intake in Grams ([6]; S.C. 58.65 μmol/kg, 0-6 Hr): 6.4 ± 0.5 Grams
- Cumulative Food Intake in Grams ([6]; S.C. 117.30 μmol/kg, 0-1 Hr): 3.6 ± 0.8 Grams
- Cumulative Food Intake in Grams ([6]; S.C. 117.30 μmol/kg, 0-2 Hr): 3.6 ± 0.8 Grams
- Cumulative Food Intake in Grams ([6]; S.C. 117.30 μmol/kg, 0-4 Hr): 4.8 ± 0.9 Grams
- Cumulative Food Intake in Grams ([6]; S.C. 117.30 μmol/kg, 0-6 Hr): 7.6 ± 1.3 Grams
- food intake in 4-6 hr interval ([6]; food intake/2 hr interval, FIGS. 26 and 27): rats treated with the two highest doses of naltrexone are beginning to resume feeding; also recorded: an increase in food consumption at some doses compared to controls
- ED50 [2]: > 30 mg/kg
- effect on water intake ([7]; 1 and 3 hr, lower dose experiment (FIGS. 24, 25)): inhibited drinking at all doses tested at the 1 and 3 hr time points
- effect on water intake ([7]; 1 and 3 hr, lower dose experiment (FIGS. 24, 25), listed as naltrexone): effectively inhibited drinking at all doses tested during the first three hours after administration
- effect on water intake ([7]; higher dose time course experiment, 0-6 hr): significant effects at 0-1 hr, 0-2 hr and 0-4 hr
- Water Intake ([7]; S.C. 1.47 μmol/kg): 69.0 ± 3.5 mL
- Water Intake ([7]; S.C. 2.93 μmol/kg): 62.4 ± 3.8 mL
- Water Intake ([7]; S.C. 14.66 μmol/kg): 53.4 ± 5.5 mL
- Water Intake ([7]; S.C. 29.33 μmol/kg): 66.0 ± 2.8 mL
- Cumulative Water Intake ([7]; S.C. 14.66 μmol/kg, 0-1 Hr): 5.2 ± 1.1 mL
- Cumulative Water Intake ([7]; S.C. 14.66 μmol/kg, 0-2 Hr): 9.2 ± 1.1 mL
- Cumulative Water Intake ([7]; S.C. 14.66 μmol/kg, 0-4 Hr): 15.2 ± 2.0 mL
- Cumulative Water Intake ([7]; S.C. 14.66 μmol/kg, 0-6 Hr): 22.8 ± 2.1 mL
- Cumulative Water Intake ([7]; S.C. 29.33 μmol/kg, 0-1 Hr): 5.2 ± 0.6 mL
- Cumulative Water Intake ([7]; S.C. 29.33 μmol/kg, 0-2 Hr): 8.4 ± 0.5 mL
- Cumulative Water Intake ([7]; S.C. 29.33 μmol/kg, 0-4 Hr): 15.2 ± 1.1 mL
- Cumulative Water Intake ([7]; S.C. 29.33 μmol/kg, 0-6 Hr): 21.6 ± 3.1 mL
- Cumulative Water Intake ([7]; S.C. 58.65 μmol/kg, 0-1 Hr): 3.6 ± 0.8 mL
- Cumulative Water Intake ([7]; S.C. 58.65 μmol/kg, 0-2 Hr): 6.8 ± 0.6 mL
- Cumulative Water Intake ([7]; S.C. 58.65 μmol/kg, 0-4 Hr): 13.2 ± 1.3 mL
- Cumulative Water Intake ([7]; S.C. 58.65 μmol/kg, 0-6 Hr): 22.4 ± 2.6 mL
- Cumulative Water Intake ([7]; S.C. 117.30 μmol/kg, 0-1 Hr): 3.6 ± 0.8 mL
- Cumulative Water Intake ([7]; S.C. 117.30 μmol/kg, 0-2 Hr): 9.2 ± 0.9 mL
- Cumulative Water Intake ([7]; S.C. 117.30 μmol/kg, 0-4 Hr): 16.0 ± 1.6 mL
- Cumulative Water Intake ([7]; S.C. 117.30 μmol/kg, 0-6 Hr): 26.8 ± 3.4 mL
- time course of antagonism of OMZ-induced analgesia, PO ([5]; PO, naltrexone 26.53 μmol/kg): a trend for progressive loss of the antagonistic effect over 0.5-4.0 hours, although the reversal was not complete by eight hours
- ED50 [5]: 0.07 mg/kg
- ED100 [5]: 0.62 mg/kg
- Percent Antagonism at 1 Hr [5]: 98%
- Percent Antagonism at 1.5 Hr [5]: 76%
- Percent Antagonism at 2 Hr [5]: 79%
- Percent Antagonism at 3 Hr [5]: 47%
- Percent Antagonism at 4 Hr [5]: 30%
- Percent Antagonism at 6 Hr [5]: 4%
- Percent Antagonism at 8 Hr [5]: 4%
- duration of antagonism of OMZ-induced analgesia, SC ([5]; SC, naltrexone 1.33 μmol/kg, OMZ 19 μmol/kg SC): up to 1 hr
